In test [1] the target is T1, RAMP2-CLR (AM1 receptor) (Homo sapiens, UniProt O60895+Q16602).
T1 construct: FLAG; expressed in transfected cells; host or cells: HEK-293 or HEK-293S cells, transient transfection, 1:1 RAMP:CLR
In words: S. cerevisiae growth assay, GPA1/Gαi chimera, RAMP2 + CLR. The format is cell-based. Particulars: percentage of yeast strain MMY11 (lacking GPA1); 20 h; mean ± S.E., n = 6. The protocol:
FIGURE 3. […] Reporter gene activity was determined following 20 h of stimulation.
General yeast procedures were performed as described previously ([22], [24]). The human CLR was introduced into yeast cells under the control of the PGK promoter using a plasmid containing ura3 (pDT-PGK). The three human RAMPs were introduced into yeast under the control of the GAPDH promoter using plasmids containing leu2 (p425-GPD) ([25]). S. cerevisiae dual reporter strains expressing chimeras of yeast GPA1(1–467) (GPA1/Gα) with the five C-terminal amino acids of […] human G proteins representing Gαs, Gα16, Gαq, Gαo, Gαi1/2, Gαi3, Gαz, Gα12, Gα13, and Gα14 (MMY84–MMY93) were used in this study ([52]). […] Receptor signaling was measured using the yeast growth assay as described previously ([24]). […] A fluorescein signal was detected as an increase in fluorescence (excitation wavelength = 485 nm, emission wavelength = 535 nm) as a measure of growth. Different concentrations of ligand (0.01 nM–100 μM) were assayed using 96-well plates, and fluorescence was detected using a Tecan Infinite M200 microplate reader (Tecan Ultra Evolution, Reading, UK) or a Mithras LB 940 microplate reader (Berthold Technologies, Harpenden, UK) for 20 h. […]

Test [2] has as its target T1, RAMP2-CLR (AM1 receptor). The test is described as follows: S. cerevisiae growth assay, GPA1/Gαq chimera, RAMP2 + CLR. The format is cell-based. Particulars: percentage of yeast strain MMY11 (lacking GPA1); 24-h; mean ± S.E., n = 6. The protocol: FIGURE 7. […] Reporter gene activity was determined following 24-h stimulation. All data are expressed as percentage of the maximum response observed in yeast strain MMY11 and are means ± S.E. of n individual data sets. D, Bar chart showing the efficacy of each ligand for each RAMP-CLR combination at the Gαq chimera determined via application of the operational model of receptor agonism (Ref. [34] and Table 1). Data were determined as statistically different from the cognate ligand for each receptor (***, p < 0.001; ****, p < 0.0001) using one-way ANOVA with Bonferroni's post-test. E, signaling bias plots were calculated as ΔΔ(τ/Ka) values on a logarithmic scale for each ligand and for each chimera G protein for the three individual RAMP-CLR complexes.
General yeast procedures were performed as described previously ([22], [24]). […] Receptor signaling was measured using the yeast growth assay as described previously ([24]). […] A fluorescein signal was detected as an increase in fluorescence (excitation wavelength = 485 nm, emission wavelength = 535 nm) as a measure of growth. Different concentrations of ligand (0.01 nM–100 μM) were assayed using 96-well plates, and fluorescence was detected using a Tecan Infinite M200 microplate reader (Tecan Ultra Evolution, Reading, UK) or a Mithras LB 940 microplate reader (Berthold Technologies, Harpenden, UK) for 20 h. […]

T1 sequence (Q16602 23-461): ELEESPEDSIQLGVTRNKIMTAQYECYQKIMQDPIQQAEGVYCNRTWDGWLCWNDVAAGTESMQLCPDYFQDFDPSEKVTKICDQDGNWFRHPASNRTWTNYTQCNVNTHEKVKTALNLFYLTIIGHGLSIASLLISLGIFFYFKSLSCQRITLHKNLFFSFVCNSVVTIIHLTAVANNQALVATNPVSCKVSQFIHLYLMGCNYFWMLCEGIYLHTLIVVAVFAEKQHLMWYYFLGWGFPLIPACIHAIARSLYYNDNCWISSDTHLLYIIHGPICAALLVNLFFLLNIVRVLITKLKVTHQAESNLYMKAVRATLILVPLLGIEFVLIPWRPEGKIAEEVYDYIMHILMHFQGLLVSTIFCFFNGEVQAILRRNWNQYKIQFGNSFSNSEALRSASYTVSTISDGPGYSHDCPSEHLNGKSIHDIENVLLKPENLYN
T1 sequence (O60895 43-175): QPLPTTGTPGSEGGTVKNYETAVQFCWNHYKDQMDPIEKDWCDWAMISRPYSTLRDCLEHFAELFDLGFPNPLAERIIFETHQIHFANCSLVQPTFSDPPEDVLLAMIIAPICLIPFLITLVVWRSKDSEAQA

On to `CSCC[C@H](NC(=O)[C@H](CC(C)C)NC(=O)[C@H](CCC(N)=O)NC(=O)[C@H](Cc1c[nH]c2ccccc12)NC(=O)[C@H](CC(C)C)NC(=O)[C@H](CCCNC(=N)N)NC(=O)[C@H](Cc1c[nH]cn1)NC(=O)[C@H](CO)NC(=O)[C@H](CC(C)C)NC(=O)[C@H](CC(N)=O)NC(=O)[C@H](CCC(N)=O)NC(=O)[C@@H](NC(=O)[C@H](CCC(N)=O)NC(=O)[C@@H]1CSSC[C@H](NC(=O)CNC(=O)[C@@H](NC(=O)[C@H](CCCNC(=N)N)NC(=O)[C@H](CC(C)C)NC(=O)[C@H](CC(C)C)NC(=O)[C@H](CCC(N)=O)NC(=O)[C@H](C)NC(=O)[C@H](CCC(N)=O)NC(=O)[C@@H](N)[C@@H](C)O)C(C)C)C(=O)N[C@@H](C(C)C)C(=O)N[C@@H](CC(C)C)C(=O)NCC(=O)N[C@@H]([C@@H](C)O)C(=O)N1)C(C)C)C(=O)NCC(=O)N1CCC[C@H]1C(=O)N[C@@H](C)C(=O)NCC(=O)N[C@@H](CCCNC(=N)N)C(=O)N[C@@H](CCC(N)=O)C(=O)N[C@@H](CC(=O)O)C(=O)N[C@@H](CO)C(=O)N[C@@H](C)C(=O)N1CCC[C@H]1C(=O)N[C@H](C(=O)N[C@@H](CC(=O)O)C(=O)N1CCC[C@H]1C(=O)N[C@@H](CO)C(=O)N[C@@H](CO)C(=O)N1CCC[C@H]1C(=O)N[C@@H](Cc1c[nH]cn1)C(=O)N[C@@H](CO)C(=O)N[C@@H](Cc1ccc(O)cc1)C(N)=O)C(C)C` [AM2, adrenomedullin 2], for which the values for the Emax on RAMP2-CLR (AM1 receptor) [1] and on RAMP2-CLR (AM1 receptor) [2] were 15.7 ± 2.5% and 11.3 ± 1.3%, respectively.

Values taken from paper PMC5063977 (The Journal of Biological Chemistry, 2016).
